Data as given in PubChem BioAssay (NCI).
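Values below derive from 48-hour exposures of cells grown in 96-well plates, with endpoints linearly interpolated between the two concentrations bracketing the appropriate inhibition level. GI50: concentration for 50% inhibition of growth. TGI: concentration producing complete growth inhibition.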

Columns and labels:
Assay in all cases: inhibition of tumour cell growth, NCI panel, 48 h
[1] = tested on: HCT-116 colon
[2] = tested on: EKVX NSCLC
[3] = tested on: MCF7 breast
[4] = tested on: PC-3 prostate
[5] = tested on: U251 CNS
[6] = tested on: SF-295 CNS
[7] = tested on: T-47D breast
[8] = tested on: SF-268 CNS
[9] = tested on: KM12 colon
[10] = tested on: SNB-75 CNS
[11] = tested on: HS 578T breast
[12] = tested on: SK-OV-3 ovarian
[13] = tested on: HL-60(TB) leukemia
[14] = tested on: SNB-19 CNS
[15] = tested on: NCI-H226 lung
[16] = tested on: UACC-257 melanoma
[17] = tested on: UO-31 renal
[18] = tested on: OVCAR-8 ovarian
[19] = tested on: A498 renal
[20] = tested on: TK-10 renal
[21] = tested on: 786-0 renal
[22] = tested on: SK-MEL-5 melanoma
[23] = tested on: RPMI-8226 leukemia
[24] = tested on: SW-620 colon
[25] = tested on: NCI-H460 lung
[26] = tested on: COLO 205 colon
[27] = tested on: BT-549 breast
[28] = tested on: SR leukemia
[29] = tested on: SK-MEL-28 melanoma
[30] = tested on: MDA-MB-231 breast
[31] = tested on: HOP-62 NSCLC
[32] = tested on: NCI/ADR-RES ovarian
[33] = tested on: HCC-2998 colon
[34] = tested on: RXF 393 renal
[35] = tested on: A549 NSCLC
[36] = tested on: SN12C renal
[37] = tested on: NCI-H522 lung
[38] = tested on: CAKI-1 renal
[39] = tested on: HOP-92 NSCLC
[40] = tested on: MOLT-4 leukemia
[41] = tested on: K-562 leukemia
[42] = tested on: SK-MEL-2 melanoma
[43] = tested on: CCRF-CEM leukemia
[44] = tested on: DU-145 prostate
[45] = tested on: ACHN renal
[46] = tested on: NCI-H23 lung
[47] = tested on: HT29 colon
[48] = tested on: LOX IMVI melanoma
[49] = tested on: HCT-15 colon
[50] = tested on: OVCAR-5 ovarian
[51] = tested on: SF-539 CNS
[52] = tested on: OVCAR-3 ovarian
[53] = tested on: MDA-MB-435
[54] = tested on: UACC-62 melanoma
[55] = tested on: OVCAR-4 ovarian
[56] = tested on: M14 melanoma
[57] = tested on: IGROV1 ovarian

`COc1cc(C2CC(c3cccc(Br)c3)=NN2C(C)=O)cc(OC)c1OC` (centres undefined) was tested, and the GI50 [1] was 479 nM, the TGI [1] was > 55900 nM and the GI50 [2] was 1480 nM. The TGI [2] was > 100000 nM, the GI50 [3] was 208 nM and the TGI [3] was 27100 nM. For the same compound, the GI50 [4] was 162 nM, the TGI [4] was 36200 nM and the GI50 [5] was 454 nM. It also gave a TGI [5] of 53400 nM, a GI50 [6] of 238 nM and a TGI [6] of 16300 nM. For the same compound, the GI50 [7] was 372 nM, the TGI [7] was 29700 nM and the GI50 [8] was 785 nM. For the same compound, the TGI [8] was 83300 nM, the GI50 [9] was 247 nM and the TGI [9] was 18000 nM. The GI50 [10] was 368 nM, the TGI [10] was > 100000 nM and the GI50 [11] was 397 nM. The TGI [11] was > 100000 nM, the GI50 [12] was 379 nM and the TGI [12] was 47200 nM. For the same compound, the GI50 [13] was 191 nM, the TGI [13] was 553 nM and the GI50 [14] was 514 nM. The TGI [14] was > 100000 nM, the GI50 [15] was 11500 nM and the TGI [15] was > 58500 nM. The GI50 [16] was 25300 nM, the TGI [16] was > 84100 nM and the GI50 [17] was 3330 nM. The TGI [17] was > 65600 nM, the GI50 [18] was 618 nM and the TGI [18] was > 46200 nM. The GI50 [19] was 514 nM, the TGI [19] was > 19700 nM and the GI50 [20] was 16500 nM. The TGI [20] was 72200 nM, the GI50 [21] was 771 nM and the TGI [21] was > 65400 nM. It also gave a GI50 [22] of 289 nM, a TGI [22] of 14900 nM and a GI50 [23] of 181 nM. The TGI [23] was 670 nM, the GI50 [24] was 309 nM and the TGI [24] was > 100000 nM. It also gave a GI50 [25] of 344 nM, a TGI [25] of 11700 nM and a GI50 [26] of 256 nM. For the same compound, the TGI [26] was 802 nM, the GI50 [27] was 10200 nM and the TGI [27] was 40700 nM. The GI50 [28] was 40.2 nM, the TGI [28] was > 100000 nM and the GI50 [29] was 3800 nM. For the same compound, the TGI [29] was > 77900 nM, the GI50 [30] was 1670 nM and the TGI [30] was > 46000 nM. For the same compound, the GI50 [31] was 3560 nM, the TGI [31] was 62800 nM and the GI50 [32] was 324 nM. It also gave a TGI [32] of 34000 nM, a GI50 [33] of 1110 nM and a TGI [33] of 15700 nM. The GI50 [34] was 266 nM, the TGI [34] was 976 nM and the GI50 [35] was 635 nM. For the same compound, the TGI [35] was > 100000 nM, the GI50 [36] was 2760 nM and the TGI [36] was > 81400 nM. The GI50 [37] was 286 nM, the TGI [37] was 4470 nM and the GI50 [38] was 282 nM. It also gave a TGI [38] of 54100 nM, a GI50 [39] of 17000 nM and a TGI [39] of 83800 nM. The GI50 [40] was 368 nM, the TGI [40] was 5050 nM and the GI50 [41] was 114 nM. The TGI [41] was 11700 nM, the GI50 [42] was 3510 nM and the TGI [42] was 55500 nM. The GI50 [43] was 264 nM, the TGI [43] was 4500 nM and the GI50 [44] was 371 nM. For the same compound, the TGI [44] was 6610 nM, the GI50 [45] was 710 nM and the TGI [45] was > 84400 nM. The GI50 [46] was 1660 nM, the TGI [46] was > 81300 nM and the GI50 [47] was 284 nM. It also gave a TGI [47] of 14900 nM, a GI50 [48] of 719 nM and a TGI [48] of 57300 nM. For the same compound, the GI50 [49] was 328 nM, the TGI [49] was 29500 nM and the GI50 [50] was 2930 nM. The TGI [50] was > 100000 nM, the GI50 [51] was 265 nM and the TGI [51] was 2620 nM. The GI50 [52] was 158 nM, the TGI [52] was 610 nM and the GI50 [53] was 51.4 nM. For the same compound, the TGI [53] was 297 nM, the GI50 [54] was 309 nM and the TGI [54] was 29300 nM. For the same compound, the GI50 [55] was 624 nM, the TGI [55] was > 100000 nM and the GI50 [56] was 555 nM. The TGI [56] was 50200 nM, the GI50 [57] was 2040 nM and the TGI [57] was > 100000 nM.
